Test results taken from publication PMC12669672, “Structural insights into selective and dual antagonism of EP2 and EP4 prostaglandin receptors” (The EMBO Journal, 2025).
Several values for one entry are separate records, joined by “and”; a condition that tells them apart may be missing. Equal values may be shown once.

Tests used:
Format in all cases: cell-based
EP4 S319A = biological target: T1, EP4 S319A (Homo sapiens, UniProt P35408, S319A); assay: GloSensor cAMP assay, antagonism of PGE2-induced cAMP; details: for cAMP activity (∆pIC50 from EP4 WT): Grapiprant, S319A; for ΔpIC50: PGE2 0.5 nM, pIC50 mutant - pIC50 WT, mean
T1 construct: The full-length EP2 or EP4 was cloned into the pcDNA3.1 vector (Invitrogen), incorporating an N-terminal FLAG tag; expressed in transfected cells; host or cells: AD293
T1 sequence (P35408 whole entry S319A): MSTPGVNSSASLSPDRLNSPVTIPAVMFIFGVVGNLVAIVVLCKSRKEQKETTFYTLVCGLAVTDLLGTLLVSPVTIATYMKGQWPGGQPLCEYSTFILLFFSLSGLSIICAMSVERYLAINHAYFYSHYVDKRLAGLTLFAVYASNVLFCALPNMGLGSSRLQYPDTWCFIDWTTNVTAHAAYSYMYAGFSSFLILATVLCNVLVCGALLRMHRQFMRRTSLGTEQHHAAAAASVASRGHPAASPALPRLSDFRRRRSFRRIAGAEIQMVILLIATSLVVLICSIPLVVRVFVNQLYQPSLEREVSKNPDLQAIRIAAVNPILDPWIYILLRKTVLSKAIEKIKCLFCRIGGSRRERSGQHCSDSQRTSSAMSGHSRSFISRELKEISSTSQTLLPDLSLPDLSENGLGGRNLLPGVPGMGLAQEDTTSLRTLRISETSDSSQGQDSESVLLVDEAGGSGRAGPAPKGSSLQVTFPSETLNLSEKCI

EP4 V320A = biological target: T2, EP4 V320A (Homo sapiens, UniProt P35408, V320A); assay: as above; details: for ΔpIC50: PGE2 0.5 nM, pIC50 mutant - pIC50 WT, mean
T2 construct: The full-length EP2 or EP4 was cloned into the pcDNA3.1 vector (Invitrogen), incorporating an N-terminal FLAG tag; expressed in transfected cells; host or cells: AD293
T2 sequence (P35408 whole entry V320A): as the sequence (P35408 whole entry S319A) above, with A319S, V320A counted along it

EP4 V72A = biological target: T3, EP4 V72A (Homo sapiens, UniProt P35408, V72A); assay: as above; details: for cAMP activity (∆pIC50 from EP4 WT): Grapiprant, V72A; for ΔpIC50: PGE2 0.5 nM, pIC50 mutant - pIC50 WT, mean
T3 construct: The full-length EP2 or EP4 was cloned into the pcDNA3.1 vector; FLAG (N); expressed in transfected cells; host or cells: AD293 cells
T3 sequence (P35408 whole entry V72A): as the sequence (P35408 whole entry S319A) above, with V72A, A319S counted along it

[1] = biological target: T4, constitutively active EP4 V320A (Homo sapiens, UniProt P35408, V320A); assay: GloSensor cAMP assay, inhibition of constitutive activity; details: for ΔpIC50: no PGE2, pIC50 mutant - pIC50 WT, mean
T4 construct: The full-length EP2 or EP4 was cloned into the pcDNA3.1 vector (Invitrogen), incorporating an N-terminal FLAG tag; expressed in transfected cells; host or cells: AD293
T4 sequence (P35408 whole entry V320A): as the sequence (P35408 whole entry S319A) above, with A319S, V320A counted along it

[2] = 1 h, Grapiprant log([M]) -7, read-out: % cAMP activity (normalized to WT)
[3] = 1 h, Grapiprant log([M]) -8, read-out: % cAMP activity (normalized to WT)
[4] = 1 h, Grapiprant log([M]) -9, read-out: % cAMP activity (normalized to WT)
[5] = 1 h, Grapiprant log([M]) -10, read-out: % cAMP activity (normalized to WT)
[6] = 1 h, Grapiprant log([M]) -11, read-out: % cAMP activity (normalized to WT)
[7] = 1 h, Grapiprant log([M]) -12, read-out: % cAMP activity (normalized to WT)

## CCc1nc2c(C)nc(C)cc2n1-c1ccc(CCNC(=O)NS(=O)(=O)c2ccc(C)cc2)cc1 [Grapiprant]
EP4 S319A
  IC50: 186 nM
  ΔpIC50: -0.64 ± 0.07
EP4 S319A; 1 h, Grapiprant log([M]) -5, read-out: % cAMP activity (normalized to WT)
  remaining activity at 10 µM: 3.59%
EP4 S319A; 1 h, Grapiprant log([M]) -6, read-out: % cAMP activity (normalized to WT)
  remaining activity at 1 µM: 3.85%
EP4 S319A; [2]
  remaining activity at 0.1 µM: 22.9%
EP4 S319A; [3]
  remaining activity at 0.01 µM: 31.9%
EP4 S319A; [4]
  remaining activity at 0.001 µM: 32.1%
EP4 S319A; [5]
  remaining activity at 0.0001 µM: 27.9%
EP4 S319A; [6]
  remaining activity at 10 pM: 33%
EP4 S319A; [7]
  remaining activity at 1 pM: 28.4%
EP4 S319A; Mean
  cAMP activity (∆pIC50 from EP4 WT): -0.645
EP4 S319A; single experiments 1st-3rd
  cAMP activity (∆pIC50 from EP4 WT): -0.523 and -0.642 and -0.769
EP4 S319A; listed as grapiprant
  ΔpIC50: reduced the potency
EP4 V320A
  IC50: 339 nM
  ΔpIC50: -0.78 ± 0.12
EP4 V320A; [5]
  remaining activity at 0.0001 µM: 39.6%
EP4 V320A; Grapiprant, V320A, Mean
  cAMP activity (∆pIC50 from EP4 WT): -0.775
EP4 V320A; listed as grapiprant
  ΔpIC50: reduced the potency
EP4 V72A
  IC50: 110 nM
  ΔpIC50: -0.29 ± 0.06
EP4 V72A; [2]
  remaining activity at 0.1 µM: 25.9%
EP4 V72A; [3]
  remaining activity at 0.01 µM: 35.8%
EP4 V72A; [4]
  remaining activity at 0.001 µM: 45%
EP4 V72A; [5]
  remaining activity at 0.0001 µM: 46.7%
EP4 V72A; [6]
  remaining activity at 10 pM: 54.1%
EP4 V72A; [7]
  remaining activity at 1 pM: 41%
EP4 V72A; Mean
  cAMP activity (∆pIC50 from EP4 WT): -0.294
EP4 V72A; single experiments 1st-3rd
  cAMP activity (∆pIC50 from EP4 WT): -0.217 and -0.413 and -0.252
EP4 V72A; listed as grapiprant
  ΔpIC50: reduced the potency
[1]
  IC50: 11.2 nM
  ΔpIC50: -0.39 ± 0.12
[1]; 1 h, Grapiprant log([M]) -7.00, EP4-V320A, read-out: % cAMP activity (normalized to WT)
  remaining activity at 0.1 µM: 7.66%
[1]; 1 h, Grapiprant log([M]) -8.00, EP4-V320A, read-out: % cAMP activity (normalized to WT)
  remaining activity at 0.01 µM: 35.4%
[1]; 1 h, Grapiprant log([M]) -9.00, EP4-V320A, read-out: % cAMP activity (normalized to WT)
  remaining activity at 0.001 µM: 48.1%
[1]; 1 h, Grapiprant log([M]) -10.00, EP4-V320A, read-out: % cAMP activity (normalized to WT)
  remaining activity at 0.0001 µM: 61.4%
[1]; 1 h, Grapiprant log([M]) -11.00, EP4-V320A, read-out: % cAMP activity (normalized to WT)
  remaining activity at 10 pM: 56.1%
[1]; 1 h, Grapiprant log([M]) -12.00, EP4-V320A, read-out: % cAMP activity (normalized to WT)
  remaining activity at 1 pM: 50.8%
[1]; V320A, Mean
  Grapiprant cAMP activity (∆pIC50 from EP4 WT), Mean: -0.388
[1]; listed as grapiprant
  ΔpIC50: reduced the potency
